In the assay the target is T1, HMG-CoA reductase (Homo sapiens, UniProt P04035).
T1 construct: oxidation of NADPH by the catalytic subunit of HMGR in the presence of the substrate HMG-CoA; purchased Sigma-Aldrich CS1090 (kit); H8789 (HMG-CoA reductase)
T1 sequence (P04035 340-888 limits assumed): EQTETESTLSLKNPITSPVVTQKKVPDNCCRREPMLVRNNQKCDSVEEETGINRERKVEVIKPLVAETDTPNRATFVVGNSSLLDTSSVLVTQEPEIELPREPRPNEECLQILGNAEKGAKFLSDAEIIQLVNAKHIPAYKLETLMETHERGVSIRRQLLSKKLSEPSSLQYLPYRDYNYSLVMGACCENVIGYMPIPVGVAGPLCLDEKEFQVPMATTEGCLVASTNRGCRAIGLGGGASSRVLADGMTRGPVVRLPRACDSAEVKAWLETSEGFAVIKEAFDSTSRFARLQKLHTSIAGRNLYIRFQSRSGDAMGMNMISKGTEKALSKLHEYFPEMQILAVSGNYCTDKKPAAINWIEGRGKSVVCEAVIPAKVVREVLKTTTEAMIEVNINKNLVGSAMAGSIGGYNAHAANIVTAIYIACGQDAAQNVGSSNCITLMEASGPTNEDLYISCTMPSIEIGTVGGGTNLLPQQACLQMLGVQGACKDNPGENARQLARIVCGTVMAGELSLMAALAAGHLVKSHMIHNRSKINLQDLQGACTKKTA
Put plainly: HMG-CoA Reductase assay kit (spectrophotometric NADPH absorbance at 340 nm). In kind it is biochemical. The note with it: NADPH and HMG-CoA both 200 μM, inhibitor concentrations varied from 0 nM to 50 nM, 37° C. Here is the method: All assays were carried out in a reaction buffer containing […] KxPO4 at pH 7.2, 1 mM EDTA, 500 mM KCl and 1 mg/ml BSA. The concentrations of NADPH and HMG-CoA were both 200 μM. […] Absorbance readings were then taken every 20 seconds for 600 seconds. […] After these were identified, assays were carried out varying their concentrations from 0 nM to 50 nM allowing IC50 values to be calculated.
This is illustrated in the following reaction scheme:
HMG-CoA+2NADPH+2H^+→mevalonate+2NADP^++CoA-SH
Add a buffer to all samples. • b. […] Add the reconstituted NADPH to all samples. • d. Add Substrate Solution (HMG-CoA) to all samples. • e. […] Mix the samples thoroughly.
3. The kinetics programme was started immediately.

Where only a bound is given, the exact number is not on record here.

Experimental findings from patent publication US20110319626A1 (BRADFORD PHARMA LIMITED, priority 2009, published 2011) are described below.

As a reminder, the IC50 is the concentration at which inhibition is half-maximal. Higher therefore signals weaker potency in that assay.

`CC(C)c1c(C(=O)Nc2ccccc2)c(-c2ccccc2)c(-c2ccc(F)cc2)n1CC[C@@H]1C[C@@H](O)CC(=O)O1` had an IC50 of 3 nM.

`COC1C[C@H](OC(=O)c2cccnc2)C[C@@H](CCn2c(-c3ccc(F)cc3)c(-c3ccccc3)c(C(=O)Nc3ccccc3)c2C(C)C)O1` (some centres unmarked) came in with a concentration for half-maximal inhibition (IC50) of less than 1 nM. Compound `CCCOC1C[C@H](O)C[C@@H](CCn2c(-c3ccc(F)cc3)c(-c3ccccc3)c(C(=O)Nc3ccccc3)c2C(C)C)O1` (some centres unmarked) came in with an IC50 of less than 1 nM.

In turn, `CC(C)c1c(C(=O)Nc2ccccc2)c(-c2ccccc2)c(-c2ccc(F)cc2)n1CC[C@@H]1C[C@@H](O)CC(OC2CCCCC2)O1` (some centres unmarked) displayed an IC50 of less than 1 nM. For `CC(C)OC1C[C@H](OCc2ccccc2)C[C@@H](CCn2c(-c3ccc(F)cc3)c(-c3ccccc3)c(C(=O)Nc3ccccc3)c2C(C)C)O1` (some centres unmarked) the value was 4 nM; for `CC(C)c1c(C(=O)Nc2ccccc2)c(-c2ccccc2)c(-c2ccc(F)cc2)n1CC[C@@H]1C[C@@H](OCc2ccccc2)CC(OC(C)(C)C)O1` (some centres unmarked), 3 nM; for `C=CCOC1C[C@H](OCc2ccccc2)C[C@@H](CCn2c(-c3ccc(F)cc3)c(-c3ccccc3)c(C(=O)Nc3ccccc3)c2C(C)C)O1` (some centres unmarked), 1 nM. Compound `COc1ccc(OC2C[C@H](O)C[C@@H](CCn3c(-c4ccc(F)cc4)c(-c4ccccc4)c(C(=O)Nc4ccccc4)c3C(C)C)O2)c(OC)c1` (some centres unmarked) returned an IC50 of less than 1 nM.
